Measurements taken from PubChem BioAssay (NCI).
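In this assay, cells in 96-well plates receive the compound at five concentrations for 48 hours. Endpoints are linearly interpolated between the surrounding concentrations. At the GI50, growth is halved. At the TGI there is no net growth.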

Assays:
Test in all cases: NCI tumour cell line growth inhibition, 48 h
KM20L2 colon = test system: KM20L2 colon
SNB-78 CNS = test system: SNB-78 CNS
DMS 114 small cell lung = test system: DMS 114 small cell lung
UACC-62 melanoma = test system: UACC-62 melanoma
M19-MEL melanoma = test system: M19-MEL melanoma
786-0 renal = test system: 786-0 renal
DMS 273 small cell lung = test system: DMS 273 small cell lung
RXF 393 renal = test system: RXF 393 renal
DLD-1 colon = test system: DLD-1 colon
NCI-H23 lung = test system: NCI-H23 lung
LXFL 529 NSCLC = test system: LXFL 529 NSCLC
HOP-18 NSCLC = test system: HOP-18 NSCLC
P388/ADR leukemia = test system: P388/ADR leukemia
SN12K1 renal = test system: SN12K1 renal
P388 leukemia = test system: P388 leukemia
XF 498 CNS = test system: XF 498 CNS

SMILES | TGI (KM20L2 colon) | TGI (SNB-78 CNS) | TGI (DMS 114 small cell lung) | TGI (UACC-62 melanoma) | TGI (M19-MEL melanoma) | TGI (786-0 renal) | TGI (DMS 273 small cell lung) | TGI (RXF 393 renal) | TGI (DLD-1 colon) | GI50 (KM20L2 colon) | GI50 (DMS 114 small cell lung) | TGI (NCI-H23 lung) | TGI (LXFL 529 NSCLC) | GI50 (RXF 393 renal) | TGI (HOP-18 NSCLC) | TGI (P388/ADR leukemia) | TGI (SN12K1 renal) | TGI (P388 leukemia) | TGI (XF 498 CNS)
CN(C)C(=S)Nc1nnc(NC23CC4CC(CC(C4)C2)C3)s1 | 24.8 µM | > 100 µM | 63.1 µM | 32.6 µM | 43.6 µM | 38.2 µM | 55.3 µM | 34.1 µM |  |  |  |  |  |  |  |  |  |  | 
CN(C)c1cccc(-c2cc(=O)c3ccccc3[nH]2)c1 | > 100 µM | > 100 µM | > 100 µM | > 100 µM | > 100 µM | > 100 µM | > 100 µM | > 100 µM | > 100 µM | 34.5 µM | 46 µM | > 100 µM | > 100 µM | 35.4 µM |  |  |  |  | 
CSCCC(NC(=O)C(Cc1ccccc1)NC(=O)CNC(=O)CNC(=O)C(N)Cc1ccc(O)cc1)C(=O)O (stereo not drawn) | > 29 µM | > 100 µM | > 100 µM | > 100 µM | > 100 µM |  | > 100 µM | > 100 µM |  |  |  | > 100 µM |  |  | > 100 µM | > 100 µM | > 100 µM | > 100 µM | 
C#CCNC(=O)CCC(N)C(=O)O (stereo not drawn) | > 100 µM | > 100 µM | > 100 µM | > 100 µM | > 100 µM |  | > 100 µM | > 100 µM | > 100 µM |  |  | > 100 µM |  |  | > 100 µM | > 100 µM | > 100 µM | > 100 µM | > 100 µM
OC1CN(OC/C=C/c2ccccc2)CC(O)C1O (stereo not drawn) | > 100 µM | > 100 µM | > 100 µM | > 100 µM | > 100 µM | 77 µM | > 100 µM | > 100 µM | > 100 µM |  |  | > 100 µM | > 100 µM |  | > 100 µM |  |  |  | > 100 µM
CCCOc1ccc(/C(Cl)=C(\C=O)c2ccc(OC)c(OC)c2)cc1OCCC | > 100 µM | > 100 µM | 25.3 µM | 19.8 µM | 31.1 µM | > 100 µM | 40.1 µM | 25.3 µM | > 100 µM |  |  | 21.6 µM | 80.9 µM |  | > 100 µM |  |  |  | 33.1 µM
NCCCNCCSSCc1ccccc1CSSCCNCCCN | > 100 µM | > 100 µM | > 100 µM | > 100 µM | > 100 µM |  | > 100 µM | > 100 µM | > 100 µM |  |  | > 100 µM | > 100 µM |  | > 100 µM |  |  |  | > 100 µM
COC1/C=C\C=C(/C)C(=O)NC2=CC(=O)C=C(C2=O)C(OC)C(C)CC(OC)C(OC)C(C)/C=C(/C)C1OC(N)=O (stereo not drawn) | 17.2 µM | 17.2 µM | 10.1 µM | 15.7 µM | 18 µM |  | 27.3 µM |  | 8.02 µM |  |  | 16 µM |  |  |  | 3.47 µM | 14.7 µM |  | 4.83 µM
CN(C)c1nc(N(C)C)nc(N(C)CN(C)c2ccccc2)n1 |  | > 100 µM | > 100 µM | > 100 µM | > 100 µM |  |  | > 100 µM |  |  |  | > 100 µM | > 100 µM |  | > 100 µM |  |  |  | > 100 µM
COc1ccc2c(=O)c([Se]c3coc4cc(OC)ccc4c3=O)coc2c1 | > 100 µM | 67 µM | 42.9 µM | > 100 µM | > 100 µM | > 100 µM | > 100 µM | > 100 µM | > 100 µM |  |  | > 100 µM | > 100 µM |  | > 100 µM |  |  |  | > 100 µM
O=C(NC(=O)c1cn(CCN2CCNCC2)c(=O)[nH]c1=O)OCc1ccccc1 |  | > 100 µM | > 100 µM | > 100 µM | > 100 µM |  |  |  | > 100 µM |  |  | > 100 µM | > 100 µM |  |  |  |  |  | 
COc1ccc(/C=C2/C(=O)N(C(=O)c3ccccc3O)N=C2C)cc1OC | > 100 µM | > 100 µM | 3.61 µM | 0.591 µM | 65.4 µM | > 100 µM |  | 0.097 µM | > 100 µM |  |  |  | > 100 µM |  |  |  |  |  | > 100 µM
COc1cc2cc3c4c(cc(OC)c(OC)c4c2cc1OC)CCN3C(=O)CCCC(=O)O | > 100 µM | > 100 µM | > 100 µM | > 100 µM | > 100 µM | > 100 µM | > 100 µM | > 100 µM | > 100 µM |  |  | > 100 µM | > 100 µM |  |  |  |  |  | 
COCCO | > 100 µM |  |  | > 100 µM |  |  |  | > 100 µM |  |  |  | > 100 µM |  |  |  | > 100 µM | > 100 µM | > 100 µM | 
CC(/C=C/c1ncccc1OCCCCCC(=O)O)=N\NC1=NCCN1 | > 100 µM |  | > 100 µM | > 100 µM | > 100 µM |  | > 100 µM | > 100 µM | > 100 µM |  |  |  | > 100 µM |  |  |  |  |  | > 100 µM
O=c1[nH]c(=S)[nH]c2c1sc(=S)n2-c1ccccc1 | > 100 µM | > 100 µM | > 100 µM | > 100 µM | > 100 µM | > 100 µM | > 100 µM | > 100 µM | > 100 µM |  |  | > 100 µM | > 100 µM |  | > 100 µM |  |  |  | > 100 µM
COC1/C=C/C(C)C(OC)CC(O)/C=C/C(C)C(C(C)C(OC)C(C)CCC(=O)C(C)C(C/C=C/N(C)C=O)OC)OC(=O)/C=C/C=C(\C)CC(OC)C(OC)C2=CC(=O)O[C@@H](C(C)C(OC)C1)[C@H]2O (stereo partly drawn) |  |  |  | 0.185 µM |  | 0.113 µM |  | 0.078 µM |  |  |  | 0.151 µM |  |  |  |  |  |  | 
CC1=C(C)C(=O)OC(C(C)(O)C2(O)CCC3(O)C4CC(Cl)C5(O)C(O)C=CC(=O)C5(C)C4CCC32C)C1 (stereo not drawn) |  |  |  | > 100 µM |  | > 100 µM |  | 56.1 µM |  |  |  | > 100 µM |  |  |  |  |  |  | 
N#CC12COC3(CCCCC3C1(C#N)C#N)OC2=N (stereo not drawn) |  |  |  | 33.9 µM |  | > 100 µM |  | 25.8 µM |  |  |  | 37.2 µM |  |  |  |  |  |  | 
O=C(N/N=C(/COc1cccc(Cl)c1)N=Cc1ccncc1)c1ccncc1 |  |  |  | > 100 µM |  | > 100 µM |  | > 100 µM |  |  |  | > 100 µM |  |  |  |  |  |  | 
NNC(N)=Nc1cccc2ccccc12 |  |  |  | > 100 µM |  | > 100 µM |  | > 100 µM |  |  |  | > 100 µM |  |  |  |  |  |  | 
Cc1ccc2nc3c(C(=O)NCCN(C)C)cccc3cc2c1 | 5.58 µM | 15 µM | 5.32 µM | 6.77 µM | 4.66 µM |  | 6.02 µM | 7.02 µM | 8.85 µM |  |  | 4.21 µM |  |  | 5.76 µM | 4.69 µM | 3.35 µM |  | 3.67 µM
CN(c1c(Cl)cccc1Cl)S(=O)(=O)c1ccccc1[N+](=O)[O-] |  |  |  | > 100 µM |  | > 100 µM |  | > 100 µM |  |  |  | > 100 µM |  |  |  |  |  |  | 
